This is an account of results in publication PMC9709915, “A Single Point Mutation Blocks the Entrance of Ligands to the Cannabinoid CB2 Receptor via the Lipid Bilayer” (Journal of Chemical Information and Modeling, 2022).

As usually defined, the EC50 is the concentration needed to bring the measured effect to its halfway point. Read a low EC50 as higher potency in that assay.

Holding throughout (experiment): inhibition of forskolin-stimulated cAMP, Lance-Ultra cAMP kit, HTRF
What all share (format): cell-based
For orientation: In TR-FRET formats the signal depends on donor and acceptor labels being close together.

Assay [1] addresses T1, CB2R (hCB2R) (Homo sapiens, UniProt P34972).
T1 construct: gene CNR2; full-length hCB2R cDNA in pcDNA3.1, transiently expressed in HEK-293T cells; no tag mentioned
An excerpt:
(§1) inhibition of forskolin-stimulated cAMP, Lance-Ultra cAMP kit, HTRF on CB2R (hCB2R)

Assay [2] addresses T2, CB2R (hCB2R) (Homo sapiens, UniProt P34972, A282M).
T2 construct: gene CNR2; full-length hCB2R cDNA in pcDNA3.1, transiently expressed in HEK-293T cells; no tag mentioned
From the text: as §1

The target in assay [3] is T3, CB2R (hCB2R) (Homo sapiens, UniProt P34972, V36F).
T3 construct: gene CNR2; full-length hCB2R cDNA in pcDNA3.1, transiently expressed in HEK-293T cells; no tag mentioned
T3 sequence (P34972 whole entry V36F): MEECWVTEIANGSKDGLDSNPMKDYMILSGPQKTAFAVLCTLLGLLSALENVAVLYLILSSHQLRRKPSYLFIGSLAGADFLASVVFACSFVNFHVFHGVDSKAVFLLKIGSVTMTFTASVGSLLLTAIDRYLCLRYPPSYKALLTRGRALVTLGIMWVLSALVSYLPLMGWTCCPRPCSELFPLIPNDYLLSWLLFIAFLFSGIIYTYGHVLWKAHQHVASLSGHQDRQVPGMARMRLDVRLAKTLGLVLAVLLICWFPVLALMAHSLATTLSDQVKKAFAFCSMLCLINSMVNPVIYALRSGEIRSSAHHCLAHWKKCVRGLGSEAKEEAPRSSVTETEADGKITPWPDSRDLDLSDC
From the text: as §1

Assay [4] concerns the target T4, CB2R (hCB2R) (Homo sapiens, UniProt P34972, A282F).
T4 construct: gene CNR2; full-length hCB2R cDNA in pcDNA3.1, transiently expressed in HEK-293T cells; no tag mentioned
From the text: as §1

For assay [5], the target named is T5, CB2R (hCB2R) (Homo sapiens, UniProt P34972, V36M).
T5 construct: gene CNR2; full-length hCB2R cDNA in pcDNA3.1, transiently expressed in HEK-293T cells; no tag mentioned
T5 sequence (P34972 whole entry V36M): as the sequence (P34972 whole entry V36F) above, with F36M counted along it
From the text: as §1

T4 sequence (P34972 whole entry A282F): as the sequence (P34972 whole entry V36F) above, with F36V, A282F counted along it
T2 sequence (P34972 whole entry A282M): as the sequence (P34972 whole entry V36F) above, with F36V, A282M counted along it
T1 sequence (P34972 whole entry): as the sequence (P34972 whole entry V36F) above, with F36V counted along it

`CCCC(C)(C)c1ccc2c(c1)OC(C)(C)[C@@H]1CC=C(C)C[C@@H]21` [JWH-133]: the EC50 on CB2R (hCB2R) [1] was 31.6 nM; at CB2R (hCB2R) [2], 15.8 nM; at CB2R (hCB2R) [3], 158 nM; at CB2R (hCB2R) [4] it was 316 nM; at CB2R (hCB2R) [5], 12.6 nM.
